In patent US11021467B2, “Phosphatidylinositol 3-kinase inhibitors” (Gilead Sciences, Inc., priority 2014, dated 2021):

Legend:
Assay in all cases: TR-FRET enzymatic activity assay against PI3K isoforms
Type in all cases: biochemical
[1] = biological target: PI3Kβ (Homo sapiens (Human), UniProt P42338); conditions: PI3Kβ, TR-FRET, 2×Km ATP, 30 minutes at 25° C.
Description: (§1) The compounds of formula (I) were characterized for their enzymatic activity against the PI3K isoforms. […] TR-FRET monitored the formation of 3,4,5-inositol triphosphate molecule that competed with fluorescently labeled PIP3 for binding to the GRP-1 pleckstrin homology domain protein.

[2] = biological target: PI3Kδ (Homo sapiens (Human), UniProt O00329); conditions: 2×Km ATP, 30 minutes at 25° C.
Description: as §1

[3] = biological target: PI3Kγ (Homo sapiens (Human), UniProt P48736); conditions: 2×Km ATP, 30 minutes at 25° C.
Description: as §1

Sequence of PI3Kδ (O00329 whole entry): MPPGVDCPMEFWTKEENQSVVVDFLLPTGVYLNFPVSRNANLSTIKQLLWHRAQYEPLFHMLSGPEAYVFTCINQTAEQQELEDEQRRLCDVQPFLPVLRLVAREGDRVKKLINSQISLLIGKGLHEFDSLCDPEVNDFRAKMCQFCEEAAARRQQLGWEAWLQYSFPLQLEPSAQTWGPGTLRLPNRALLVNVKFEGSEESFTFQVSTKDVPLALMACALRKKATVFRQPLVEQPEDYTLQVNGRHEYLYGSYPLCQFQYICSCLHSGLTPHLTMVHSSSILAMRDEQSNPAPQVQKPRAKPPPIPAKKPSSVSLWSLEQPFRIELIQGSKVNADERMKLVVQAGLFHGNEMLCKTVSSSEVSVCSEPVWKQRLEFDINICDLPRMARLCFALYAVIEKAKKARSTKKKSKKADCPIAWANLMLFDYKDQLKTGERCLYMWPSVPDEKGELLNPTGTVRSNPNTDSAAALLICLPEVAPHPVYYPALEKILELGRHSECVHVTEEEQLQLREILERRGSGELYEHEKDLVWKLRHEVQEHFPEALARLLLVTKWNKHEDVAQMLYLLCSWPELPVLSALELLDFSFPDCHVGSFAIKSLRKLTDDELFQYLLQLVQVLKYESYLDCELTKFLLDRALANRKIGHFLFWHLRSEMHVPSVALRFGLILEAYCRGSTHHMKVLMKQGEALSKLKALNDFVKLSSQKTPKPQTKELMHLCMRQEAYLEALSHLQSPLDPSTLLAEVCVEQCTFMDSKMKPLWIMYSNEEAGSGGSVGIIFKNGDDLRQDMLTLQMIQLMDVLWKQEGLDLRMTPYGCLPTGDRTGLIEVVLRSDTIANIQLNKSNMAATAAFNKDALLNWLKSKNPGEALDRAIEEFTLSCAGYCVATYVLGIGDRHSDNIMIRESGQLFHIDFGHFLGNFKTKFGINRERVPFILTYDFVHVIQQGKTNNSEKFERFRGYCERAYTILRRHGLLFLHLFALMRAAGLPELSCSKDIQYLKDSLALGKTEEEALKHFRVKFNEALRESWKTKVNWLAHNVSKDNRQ
Sequence of PI3Kδ (P27986 whole entry partner): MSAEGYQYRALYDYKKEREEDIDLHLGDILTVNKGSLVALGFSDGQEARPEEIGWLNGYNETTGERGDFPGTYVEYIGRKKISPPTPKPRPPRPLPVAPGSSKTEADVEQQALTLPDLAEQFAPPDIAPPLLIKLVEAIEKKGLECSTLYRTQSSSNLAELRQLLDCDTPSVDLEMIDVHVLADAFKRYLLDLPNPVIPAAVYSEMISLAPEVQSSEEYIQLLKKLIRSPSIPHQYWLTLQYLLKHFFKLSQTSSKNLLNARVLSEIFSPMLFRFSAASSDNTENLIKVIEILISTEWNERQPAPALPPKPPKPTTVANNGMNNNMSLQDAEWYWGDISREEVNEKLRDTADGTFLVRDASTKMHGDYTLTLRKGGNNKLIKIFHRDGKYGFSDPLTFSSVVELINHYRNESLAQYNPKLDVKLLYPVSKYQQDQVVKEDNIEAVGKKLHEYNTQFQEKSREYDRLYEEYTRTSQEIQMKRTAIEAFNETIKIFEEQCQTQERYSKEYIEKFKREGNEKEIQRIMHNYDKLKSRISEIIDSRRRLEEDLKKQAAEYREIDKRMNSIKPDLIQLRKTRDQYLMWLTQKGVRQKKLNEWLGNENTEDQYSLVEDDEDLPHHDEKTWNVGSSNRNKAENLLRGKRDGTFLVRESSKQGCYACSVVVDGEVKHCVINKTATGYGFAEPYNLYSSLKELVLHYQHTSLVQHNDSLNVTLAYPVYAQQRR
Sequence of PI3Kγ (P48736 whole entry): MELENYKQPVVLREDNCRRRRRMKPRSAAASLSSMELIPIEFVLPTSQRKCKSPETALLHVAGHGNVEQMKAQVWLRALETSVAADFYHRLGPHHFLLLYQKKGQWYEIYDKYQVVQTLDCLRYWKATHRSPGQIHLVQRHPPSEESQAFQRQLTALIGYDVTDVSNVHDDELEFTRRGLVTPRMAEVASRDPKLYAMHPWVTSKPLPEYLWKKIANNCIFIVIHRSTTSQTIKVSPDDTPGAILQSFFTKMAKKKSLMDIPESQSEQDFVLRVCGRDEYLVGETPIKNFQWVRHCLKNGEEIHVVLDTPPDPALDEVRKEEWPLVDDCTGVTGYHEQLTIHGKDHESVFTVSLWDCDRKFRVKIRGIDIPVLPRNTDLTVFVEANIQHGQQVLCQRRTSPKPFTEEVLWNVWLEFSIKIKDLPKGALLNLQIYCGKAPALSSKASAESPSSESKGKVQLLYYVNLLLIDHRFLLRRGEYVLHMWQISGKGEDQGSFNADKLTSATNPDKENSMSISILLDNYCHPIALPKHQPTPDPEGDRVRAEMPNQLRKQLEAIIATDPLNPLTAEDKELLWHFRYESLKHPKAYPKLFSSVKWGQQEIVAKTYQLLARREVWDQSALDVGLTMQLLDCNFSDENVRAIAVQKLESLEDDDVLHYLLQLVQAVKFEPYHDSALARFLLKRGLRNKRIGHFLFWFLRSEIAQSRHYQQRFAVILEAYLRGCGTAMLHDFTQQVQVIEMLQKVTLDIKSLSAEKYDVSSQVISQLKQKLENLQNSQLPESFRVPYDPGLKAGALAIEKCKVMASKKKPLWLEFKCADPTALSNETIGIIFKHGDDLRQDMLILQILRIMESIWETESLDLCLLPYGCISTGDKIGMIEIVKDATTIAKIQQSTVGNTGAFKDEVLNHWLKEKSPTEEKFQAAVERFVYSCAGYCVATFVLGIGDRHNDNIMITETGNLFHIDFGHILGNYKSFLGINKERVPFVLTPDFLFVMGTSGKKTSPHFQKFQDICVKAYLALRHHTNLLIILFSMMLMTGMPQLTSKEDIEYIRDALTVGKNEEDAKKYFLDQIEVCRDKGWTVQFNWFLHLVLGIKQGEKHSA
Sequence of PI3Kβ (P42338 whole entry, the tested form may be a part, canonical isoform): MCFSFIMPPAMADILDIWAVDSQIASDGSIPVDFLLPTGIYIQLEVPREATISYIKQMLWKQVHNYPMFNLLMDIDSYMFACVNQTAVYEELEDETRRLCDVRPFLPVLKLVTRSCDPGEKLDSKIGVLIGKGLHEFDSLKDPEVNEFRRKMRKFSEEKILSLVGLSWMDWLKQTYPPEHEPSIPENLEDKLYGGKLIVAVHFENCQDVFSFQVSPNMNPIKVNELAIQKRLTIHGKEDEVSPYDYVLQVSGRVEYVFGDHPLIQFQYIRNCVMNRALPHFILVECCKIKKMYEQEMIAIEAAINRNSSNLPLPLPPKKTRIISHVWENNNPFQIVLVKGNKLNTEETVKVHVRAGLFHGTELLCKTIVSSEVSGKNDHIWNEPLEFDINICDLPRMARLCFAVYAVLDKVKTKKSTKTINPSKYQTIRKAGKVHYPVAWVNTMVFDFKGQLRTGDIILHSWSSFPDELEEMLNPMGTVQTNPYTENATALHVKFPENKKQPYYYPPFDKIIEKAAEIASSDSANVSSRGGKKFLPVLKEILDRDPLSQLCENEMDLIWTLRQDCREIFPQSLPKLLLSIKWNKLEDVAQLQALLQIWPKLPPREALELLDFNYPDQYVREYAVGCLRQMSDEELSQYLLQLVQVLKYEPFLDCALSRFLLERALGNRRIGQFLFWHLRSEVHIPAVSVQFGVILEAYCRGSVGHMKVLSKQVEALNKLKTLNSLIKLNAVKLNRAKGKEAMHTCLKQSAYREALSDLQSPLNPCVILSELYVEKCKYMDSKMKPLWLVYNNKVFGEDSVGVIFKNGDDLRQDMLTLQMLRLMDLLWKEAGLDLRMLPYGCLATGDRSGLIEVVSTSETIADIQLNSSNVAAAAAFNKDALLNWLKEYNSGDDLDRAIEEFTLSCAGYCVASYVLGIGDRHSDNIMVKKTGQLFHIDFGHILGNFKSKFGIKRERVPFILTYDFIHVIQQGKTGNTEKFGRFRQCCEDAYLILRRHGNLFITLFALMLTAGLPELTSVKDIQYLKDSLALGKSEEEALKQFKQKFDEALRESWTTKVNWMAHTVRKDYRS
Sequence of PI3Kβ (P27986 whole entry partner, the tested form may be a part, canonical isoform): as the sequence (P27986 whole entry partner) above

| Structure (SMILES) | IC50 [1] [nM] | IC50 [2] [nM] | IC50 [3] [nM] |
| --- | --- | --- | --- |
| CC(C)NCC(O)CCn1c([C@H](C)Nc2nc(N)nc(N)c2C#N)nc2cccc(Cl)c2c1=O (stereo partly drawn) [Compound 74, 2,4-diamino-6-(((1S)-1-(5-chloro-3-(3-hydroxy-4-(isopropylamino)butyl)-4-oxo-3,4-dihydroquinazolin-2-yl)ethyl)amino)pyrimidine-5-carbonitrile] | 17 | 1 | 1620 |
| C[C@H](Nc1nc(N)nc(N)c1C#N)c1nc2cccc(Cl)c2c(=O)n1CCC(O)CNC(C)(C)C (stereo partly drawn) [Compound 75, 2,4-diamino-6-(((1S)-1-(3-(4-(tert-butylamino)-3-hydroxybutyl)-5-chloro-4-oxo-3,4-dihydroquinazolin-2-yl)ethyl)amino)pyrimidine-5-carbonitrile] | 19 | 1 | 2300 |
| C[C@H](Nc1nc(N)nc(N)c1C#N)c1nc2cccc(Cl)c2c(=O)n1Cc1cc[nH]n1 [Compound 76, (S)-4-((1-(3-((1H-pyrazol-3-yl)methyl)-5-chloro-4-oxo-3,4-dihydroquinazolin-2-yl)ethyl)amino)-2,6-diaminopyrimidine-5-carbonitrile] | 46 | 2 | 160 |
| C[C@H](Nc1ncnc(N)c1C#N)c1nc2cccc(Cl)c2c(=O)n1Cc1cc[nH]n1 [Compound 77, (S)-4-((1-(3-((1H-pyrazol-3-yl)methyl)-5-chloro-4-oxo-3,4-dihydroquinazolin-2-yl)ethyl)amino)-6-aminopyrimidine-5-carbonitrile] | 860 | 33 | 7000 |
| C[C@H](Nc1ncnn2ccnc12)c1nc2cccc(Cl)c2c(=O)n1Cc1cc[nH]n1 [Compound 78, (S)-3-((1H-pyrazol-3-yl)methyl)-5-chloro-2-(1-(imidazo[2,1-f][1,2,4]triazin-4-ylamino)ethyl)quinazolin-4(3H)-one] | 920 | 49 | 3000 |
| C[C@H](Nc1nc(N)nc(N)c1C#N)c1nc2cccc(Cl)c2c(=O)n1Cc1cn[nH]c1 [Compound 79, (S)-4-((1-(3-((1H-pyrazol-4-yl)methyl)-5-chloro-4-oxo-3,4-dihydroquinazolin-2-yl)ethyl)amino)-2,6-diaminopyrimidine-5-carbonitrile] | 40 | 2 | 380 |
| C[C@H](Nc1nc(N)nc(N)c1C#N)c1nc2cccc(Cl)c2c(=O)n1Cc1ncc[nH]1 [Compound 80, (S)-4-((1-(3-((1H-imidazol-2-yl)methyl)-5-chloro-4-oxo-3,4-dihydroquinazolin-2-yl)ethyl)amino)-2,6-diaminopyrimidine-5-carbonitrile] | 1100 | 27 | 2400 |
| C[C@H](Nc1nc(N)nc(N)c1C#N)c1nc2cccc(Cl)c2c(=O)n1Cc1nc[nH]n1 [Compound 81, (S)-4-((1-(3-((1H-1,2,4-triazol-3-yl)methyl)-5-chloro-4-oxo-3,4-dihydroquinazolin-2-yl)ethyl)amino)-2,6-diaminopyrimidine-5-carbonitrile] | 47 | 5 | 320 |
| C[C@H](Nc1ncnc(N)c1C#N)c1nc2cccc(Cl)c2c(=O)n1[C@H]1C[C@@H](O)C1 [Compound 82, 4-amino-6-(((S)-1-(5-chloro-3-((1S,3R)-3-hydroxycyclobutyl)-4-oxo-3,4-dihydroquinazolin-2-yl)ethyl)amino)pyrimidine-5-carbonitrile] | 150 | 5 | 2300 |
| C[C@H](Nc1ncnc(N)c1C#N)c1nc2cccc(Cl)c2c(=O)n1CCCO [Compound 83, (S)-4-amino-6-((1-(5-chloro-3-(3-hydroxypropyl)-4-oxo-3,4-dihydroquinazolin-2-yl)ethyl)amino)pyrimidine-5-carbonitrile] | 180 | 6 | 2900 |
| CC(CCO)n1c([C@H](C)Nc2ncnc(N)c2C#N)nc2cccc(Cl)c2c1=O (stereo partly drawn) [Compound 84, 4-amino-6-(((1S)-1-(5-chloro-3-(4-hydroxybutan-2-yl)-4-oxo-3,4-dihydroquinazolin-2-yl)ethyl)amino)pyrimidine-5-carbonitrile] | 260 | 4 | 2900 |
| C[C@H](Nc1ncnc(N)c1C#N)c1nc2cccc(Cl)c2c(=O)n1[C@H]1CC[C@H](O)CC1 [Compound 85, (S)-4-amino-6-((1-(5-chloro-3-(4-hydroxycyclohexyl)-4-oxo-3,4-dihydroquinazolin-2-yl)ethyl)amino)pyrimidine-5-carbonitrile] | 92 | 3 | 1200 |
| C[C@H](Nc1ncnc(N)c1C#N)c1nc2cccc(Cl)c2c(=O)n1[C@H]1C[C@H](N)C1 [Compound 86, (S)-4-amino-6-((1-(3-(3-aminocyclobutyl)-5-chloro-4-oxo-3,4-dihydroquinazolin-2-yl)ethyl)amino)pyrimidine-5-carbonitrile] | 620 | 24 | ≥ 10000 |
| C[C@H](Nc1ncnc(N)c1C#N)c1nc2cccc(Cl)c2c(=O)n1CC1CCNCC1 [Compound 87, (S)-4-amino-6-((1-(5-chloro-4-oxo-3-(piperidin-4-ylmethyl)-3,4-dihydroquinazolin-2-yl)ethyl)amino)pyrimidine-5-carbonitrile] | 150 | 4 | ≥ 10000 |
| C[C@H](Nc1ncnc(N)c1C#N)c1nc2cccc(Cl)c2c(=O)n1CC1CNCCO1 (stereo partly drawn) [Compound 88, 4-amino-6-(((1S)-1-(5-chloro-3-(morpholin-2-ylmethyl)-4-oxo-3,4-dihydroquinazolin-2-yl)ethyl)amino)pyrimidine-5-carbonitrile] | 250 | 42 | ≥ 10000 |
| C[C@H](Nc1ncnc(N)c1C#N)c1nc2cccc(Cl)c2c(=O)n1CC1CCNC1 (stereo partly drawn) [Compound 89, 4-amino-6-(((1S)-1-(5-chloro-4-oxo-3-(pyrrolidin-3-ylmethyl)-3,4-dihydroquinazolin-2-yl)ethyl)amino)pyrimidine-5-carbonitrile] | 54 | 3 | ≥ 10000 |
| C[C@H](Nc1ncnc(N)c1C#N)c1nc2cccc(Cl)c2c(=O)n1CC1CCCN1 (stereo partly drawn) [Compound 90, 4-amino-6-(((1S)-1-(5-chloro-4-oxo-3-(pyrrolidin-2-ylmethyl)-3,4-dihydroquinazolin-2-yl)ethyl)amino)pyrimidine-5-carbonitrile] | 2800 | 37 | ≥ 10000 |
| C[C@H](Nc1ncnc(N)c1C#N)c1nc2cccc(Cl)c2c(=O)n1CC1CCCCN1 (stereo partly drawn) [Compound 91, 4-amino-6-(((1S)-1-(5-chloro-4-oxo-3-(piperidin-2-ylmethyl)-3,4-dihydroquinazolin-2-yl)ethyl)amino)pyrimidine-5-carbonitrile] | 1700 | 95 | ≥ 10000 |
| C[C@H](Nc1ncnc(N)c1C#N)c1nc2cccc(Cl)c2c(=O)n1CC1CCCNC1 (stereo partly drawn) [Compound 92, 4-amino-6-(((1S)-1-(5-chloro-4-oxo-3-(piperidin-3-ylmethyl)-3,4-dihydroquinazolin-2-yl)ethyl)amino)pyrimidine-5-carbonitrile] | 320 | 7 | ≥ 10000 |
| C[C@H](Nc1nc(N)nc(N)c1C#N)c1nc2cccc(Cl)c2c(=O)n1[C@H]1C[C@@H](O)C1 [Compound 93, 2,4-diamino-6-(((S)-1-(5-chloro-3-((cis)-3-hydroxycyclobutyl)-4-oxo-3,4-dihydroquinazolin-2-yl)ethyl)amino)pyrimidine-5-carbonitrile] | 4 | 1 | 158 |
| C[C@H](Nc1nc(N)nc(N)c1Cl)c1nc2cccc(Cl)c2c(=O)n1[C@H]1C[C@@H](O)C1 [Compound 94, 5-chloro-2-((S)-1-((2,6-diamino-5-chloropyrimidin-4-yl)amino)ethyl)-3-((cis)-3-hydroxycyclobutyl)quinazolin-4(3H)-one] | 190 | 14 | 1590 |
| Nc1nc(N)c(Cl)c(N[C@H](c2nc3c(Cl)ccc(Cl)c3c(=O)n2[C@H]2C[C@@H](O)C2)C2CC2)n1 [Compound 95, 5,8-dichloro-2-((S)-cyclopropyl((2,6-diamino-5-chloropyrimidin-4-yl)amino)methyl)-3-((cis)-3-hydroxycyclobutyl)quinazolin-4(3H)-one] | 720 | 16 | ≥ 10000 |
| N#Cc1c(N)nc(N)nc1N[C@H](c1nc2c(Cl)ccc(Cl)c2c(=O)n1[C@H]1C[C@@H](O)C1)C1CC1 [Compound 96, 2,4-diamino-6-(((S)-cyclopropyl(5,8-dichloro-3-((cis)-3-hydroxycyclobutyl)-4-oxo-3,4-dihydroquinazolin-2-yl)methyl)amino)pyrimidine-5-carbonitrile] | 10 | 2 | 960 |
| N#Cc1c(N)nc(N)nc1N[C@H](c1nc2c(Cl)cc(F)cc2c(=O)n1[C@H]1C[C@H](O)C1)C1CC1 [Compound 97, 2,4-diamino-6-(((S)-(8-chloro-6-fluoro-3-((trans)-3-hydroxycyclobutyl)-4-oxo-3,4-dihydroquinazolin-2-yl)(cyclopropyl)methyl)amino)pyrimidine-5-carbonitrile] | 58 | 8 | 2800 |
| C[C@H](Nc1nc(N)nc(N)c1C#N)c1nc2c(Cl)cc(F)cc2c(=O)n1[C@H]1C[C@H](O)C1 [Compound 98, 2,4-diamino-6-(((S)-1-(8-chloro-6-fluoro-3-((trans)-3-hydroxycyclobutyl)-4-oxo-3,4-dihydroquinazolin-2-yl)ethyl)amino)pyrimidine-5-carbonitrile] | 330 | 20 | 3200 |
